Source: ChEMBL document CHEMBL4715849, “Recent Progress in the Discovery of Antifungal Agents Targeting the Cell Wall” (J Med Chem, 2020)
Converted amounts (≈) assume the structure as drawn. Each block holds one molecule with its values, some of them ahead of it. Numbered stars: 1 amine (or outer) side, 2 acyl side, 3 side chain; on linkers, the order of the positions; unused ones are H or OH. Bridge positions count the residues as written; N and C are the ends. Square brackets hold non-standard residues; d marks the D form. Peptide text beside a SMILES is read from it. * marks the point of attachment. hTyr(3S-OH,4S-OH,3'-OSO3H) = N[C@H](C(=O)O)[C@H](O)[C@@H](O)c1ccc(O)c(OS(=O)(=O)O)c1; pTerphenylCO(4''-OnC5H11) = CCCCCOc1ccc(-c2ccc(-c3ccc(C(=O)*)cc3)cc2)cc1; Orn(4R-OH,5R-OH) = O=C([C@H](C[C@@H](O)[C@@H](O)N[*:3])N[*:1])[*:2]; hTyr(3S-OH,4S-OH) = N[C@H](C(=O)O)[C@H](O)[C@@H](O)c1ccc(O)cc1; Pro(3S-OH,4S-Me) = C[C@H]1CN[C@H](C(=O)O)[C@H]1O; X1 = CCCCCOc1ccc(-c2cc(-c3ccc(C(=O)*)cc3)no2)cc1; Gln(3R-OH) = NC(=O)C[C@@H](O)[C@H](N)C(=O)O; Hyp = O=C(O)[C@@H]1C[C@@H](O)CN1

Tests used:
[1] = Inhibition of Candida albicans GFA1 using D-Fru6P and L-glutamine as substrate by absorbance method
Candida albicans [2] = assay: Antifungal activity against Candida albicans ATCC 10231 by CLSI-based serial dilution method; type: functional
[3] = Inhibition of Candida albicans GFA1 using D-Fru6P and L-glutamine as substrate incubated for 30 mins by Elson-Morgan method
Pichia kudriavzevii [4] = assay: Antifungal activity against Candida krusei DSM 6128 by CLSI-based serial dilution method; type: functional
Nakaseomyces glabratus [5] = assay: Antifungal activity against Candida glabrata DSM 11226 by CLSI-based serial dilution method; type: functional
[6] = Antifungal activity against Candida arborea KKP319 by CLSI-based serial dilution method; type: functional
Candida albicans [7] = assay: Antifungal activity against Candida albicans K335 by agar incorporation method; type: functional
Candida albicans [8] = assay: Antifungal activity against Candida albicans K1133 by agar incorporation method; type: functional
Cyberlindnera jadinii = assay: Antifungal activity against Candida utilis K482 by agar incorporation method; type: functional; conditions: Williopsis jadinii
[9] = test system: Meyerozyma guilliermondii; assay: Antifungal activity against Candida guilliermondii K334 by agar incorporation method; type: functional
Candida albicans [10] = assay: Antifungal activity against Candida albicans K341 by agar incorporation method; type: functional
[11] = Inhibition of Beta-1,3-glucan synthase in Schizosaccharomyces pombe pbr1-6
[12] = Inhibition of Beta-1,3-glucan synthase in Schizosaccharomyces pombe pbr1-8
Candida parapsilosis [13] = assay: Antifungal activity against Candida parapsilosis K1154 by agar incorporation method; type: functional; conditions: Lodderomyces parapsilosis
[14] = Inhibition of Beta-1,3-glucan synthase in wild type Schizosaccharomyces pombe
Candida tropicalis [15] = assay: Antifungal activity against Candida tropicalis K1155 by agar incorporation method; type: functional
Candida parapsilosis [16] = assay: Antifungal activity against Candida parapsilosis K332 by agar incorporation method; type: functional; conditions: Lodderomyces parapsilosis
Candida tropicalis [17] = assay: Antifungal activity against Candida tropicalis K337 by agar incorporation method; type: functional
Candida albicans [18] = assay: Antifungal activity against Candida albicans K1082 by agar incorporation method; type: functional
Pichia kudriavzevii [19] = assay: Antifungal activity against Candida krusei K1153 by agar incorporation method; type: functional
Aspergillus fumigatus [20] = assay: Antifungal activity against Aspergillus fumigatus clinical isolate 293 infected in Hartley guinea pig model of invasive pulmonary aspergillosis assessed as pig median survival time at 10 mg/kg, sc administered until day 8 starting from day 1 post infection; type: functional, Af293; conditions: time 8 day
Aspergillus fumigatus [21] = assay: Antifungal activity against Aspergillus fumigatus clinical isolate 293 infected in Hartley guinea pig model of invasive pulmonary aspergillosis assessed as percent survival of pig at 10 mg/kg, sc administered until day 8 starting from day 1 post infection; type: functional; conditions: Af293, sc, 192 h, time 8 day
Candida albicans [22] = assay: Antifungal activity against Candida albicans Ca1055 by CLSI method; type: functional
Candida parapsilosis [23] = assay: Antifungal activity against Candida parapsilosis ATCC22019 by CLSI method; type: functional; conditions: Lodderomyces parapsilosis
Candida albicans [24] = assay: Antifungal activity against Candida albicans Ca2323/ORF6.945 by CLSI method; type: functional
Nakaseomyces glabratus [25] = assay: Antifungal activity against Candida glabrata MY1381 by CLSI method; type: functional
Clavispora lusitaniae = assay: Antifungal activity against Candida lusitaniae MY1396 by CLSI method; type: functional
Aspergillus fumigatus [26] = assay: Antifungal activity against Aspergillus fumigatus CF1083 infected in iv dosed mouse model of pulmonary aspergillosis administered once daily for 4 days and measured on day 14; type: functional; conditions: 336 h, time 14 day
[27] = Inhibition of fungi 1,3-beta-D-glucan synthase
[28] = Elimination half life life in iv dosed human; conditions: in vivo
Candida albicans [29] = assay: Antifungal activity against Candida albicans CY1002 infected in iv dosed ICR mouse administered as single dose measured on day 7; type: functional; conditions: 168 h, time 7 day
Candida tropicalis [30] = assay: Antifungal activity against Candida tropicalis incubated for 24 hrs by CLSI method; type: functional
Candida parapsilosis [31] = assay: Antifungal activity against Candida parapsilosis incubated for 24 hrs by CLSI method; type: functional; conditions: Lodderomyces parapsilosis
Candida albicans [32] = assay: Antifungal activity against Candida albicans incubated for 24 hrs by CLSI method; type: functional
Cryptococcus neoformans = assay: Antifungal activity against Cryptococcus neoformans H99 incubated for 72 hrs by CLSI M27A method; type: functional; conditions: var grubii H99
Pichia kudriavzevii [33] = assay: Antifungal activity against Candida krusei incubated for 24 hrs by CLSI method; type: functional
[34] = Inhibition of Cryptococcus neoformans (H99) 1,3-beta-glucan synthase component FKS1 using UDP-[14C]glucose as substrate; parameters: species or system Cryptococcus neoformans var. grubii H99
Nakaseomyces glabratus [35] = assay: Antifungal activity against Candida glabrata incubated for 24 hrs by CLSI method; type: functional
Candida albicans [36] = assay: Antifungal activity against Candida albicans A9540 infected in iv dosed ICR mouse assessed as protection against fungus-induced lethal infection dosed once immediately following fungal challenge and measured on day 20 post infection; type: functional; conditions: 480 h, time 20 day, read-out: PD50

Structure (SMILES): N[C@H]1C(O)O[C@H](CS(=O)(=O)O)[C@@H](O)[C@@H]1O (some centres undefined)
IC50 [1]: 80 µM
MIC (Candida albicans [2]): 1000 µg/mL (≈ 4110 µM)

Structure (SMILES): CC(=O)N[C@@H](CO)[C@@H](O)[C@H](O)[C@H](O)CS(=O)(=O)O
IC50 [3]: > 5000 µM
MIC (Candida albicans [2]): 1000 µg/mL (≈ 3480 µM)

Structure (SMILES): COc1cc(C[C@@H](O)[C@@H]2NC(=O)[C@@H]3C[C@@H](O)CN3C(=O)[C@H]([C@@H](C)O)NC(=O)[C@H](NC[C@H]3CC[C@H](c4nnc(-c5ccc(N6CCC(OC)(C7CCCCC7)CC6)cc5)s4)CC3)C[C@@H](O)CNC(=O)[C@@H]3[C@@H](O)[C@@H](C)CN3C(=O)[C@H]([C@H](O)CCNC(CO)CO)NC2=O)ccc1O
Time (Aspergillus fumigatus [20]): 9.5 days
survival at 10 mg/kg (Aspergillus fumigatus [21]): 31.2%

Structure (SMILES): CCCCCOc1ccc(-c2ccc(-c3ccc(C(=O)N[C@H]4C[C@@H](O)[C@@H](O)NC(=O)[C@@H]5[C@@H](O)[C@@H](C)CN5C(=O)[C@H]([C@@H](C)O)NC(=O)[C@H]([C@H](O)[C@@H](O)c5ccc(O)cc5)NC(=O)[C@@H]5C[C@@H](O)CN5C(=O)[C@H]([C@@H](C)O)NC4=O)cc3)cc2)cc1 [ANIDULAFUNGIN] ({pTerphenylCO(4''-OnC5H11)}-[Orn(4R-OH,5R-OH)]T[Hyp][hTyr(3S-OH,4S-OH)]T[Pro(3S-OH,4S-Me)]; lactam 1-C)
half-life [28]: 24 h
ED50 (Candida albicans [29]): 0.22 mg/kg

Structure (SMILES): CC[C@H](C)C[C@H](C)CCCCCCCCC(=O)N[C@H]1C[C@@H](O)[C@@H](NCCN)NC(=O)[C@@H]2[C@@H](O)CCN2C(=O)[C@H]([C@H](O)CCN)NC(=O)[C@H]([C@H](O)[C@@H](O)c2ccc(O)cc2)NC(=O)[C@@H]2C[C@@H](O)CN2C(=O)[C@H]([C@@H](C)O)NC1=O [CASPOFUNGIN]
MIC90 (Candida tropicalis [30]): 1 µg/mL (≈ 0.915 µM)
MIC90 (Candida parapsilosis [31]): 0.5 µg/mL (≈ 0.457 µM)
ED50 (Aspergillus fumigatus [26]): > 15 mg/kg
MIC90 (Candida albicans [32]): 2 µg/mL (≈ 1.83 µM)
MIC (Cryptococcus neoformans): 16 µg/mL (≈ 14.6 µM)
MIC90 (Pichia kudriavzevii [33]): 1 µg/mL (≈ 0.915 µM)
IC50 [11]: 150 µg/mL (≈ 137 µM)
IC50 [12]: 250 µg/mL (≈ 229 µM)
IC50 [14]: 0.3 µg/mL (≈ 0.274 µM)
Ki [34]: 0.17 µM
MIC90 (Nakaseomyces glabratus [35]): 16 µg/mL (≈ 14.6 µM)

Structure (SMILES): CCCCCOc1ccc(-c2cc(-c3ccc(C(=O)N[C@H]4C[C@@H](O)[C@@H](O)NC(=O)[C@@H]5[C@@H](O)[C@@H](C)CN5C(=O)[C@H]([C@H](O)CC(N)=O)NC(=O)[C@H]([C@H](O)[C@@H](O)c5ccc(O)c(OS(=O)(=O)O)c5)NC(=O)[C@@H]5C[C@@H](O)CN5C(=O)[C@H]([C@@H](C)O)NC4=O)cc3)no2)cc1 [MICAFUNGIN] (X1-[Orn(4R-OH,5R-OH)]T[Hyp][hTyr(3S-OH,4S-OH,3'-OSO3H)][Gln(3R-OH)][Pro(3S-OH,4S-Me)]; lactam 1-C)
half-life [28]: 10 h

Structure (SMILES): CN[C@@H]1[C@H](O[C@@H]2OC[C@@H](O)[C@H](O)[C@H]2O)[C@@H](O)[C@H](O[C@H]2c3cc(C)c(C(=O)N[C@H](C)C(=O)O)c(O)c3-c3c(cc4c(c3O)C(=O)c3cc(OC)cc(O)c3C4=O)[C@@H]2O)O[C@@H]1C [PRADIMICIN A]
ED50 (Candida albicans [36]): 8.9 mg/kg

The next lines start with results.

MIC (Pichia kudriavzevii [4]): > 4000 µg/mL
MIC (Nakaseomyces glabratus [5]): > 4000 µg/mL
MIC [6]: > 4000 µg/mL
MIC (Candida albicans [2]): > 4000 µg/mL
Structure (SMILES): COS(=O)(=O)C[C@H]1OC(O)[C@H](NC(C)=O)[C@@H](O)[C@@H]1O (some centres undefined)

MIC (Candida albicans [7]): 0.1 µg/mL (≈ 0.111 µM)
MIC (Candida albicans [8]): 0.1 µg/mL (≈ 0.111 µM)
MIC (Cyberlindnera jadinii): 0.1 µg/mL (≈ 0.111 µM)
MIC [9]: 0.1 µg/mL (≈ 0.111 µM)
MIC (Candida albicans [10]): 0.1 µg/mL (≈ 0.111 µM)
IC50 [11]: > 250 µg/mL
IC50 [12]: > 250 µg/mL
MIC (Candida parapsilosis [13]): 0.1 µg/mL (≈ 0.111 µM)
IC50 [14]: 0.02 µg/mL (≈ 0.0222 µM)
MIC (Candida tropicalis [15]): 0.1 µg/mL (≈ 0.111 µM)
MIC (Candida parapsilosis [16]): 0.1 µg/mL (≈ 0.111 µM)
MIC (Candida tropicalis [17]): 0.1 µg/mL (≈ 0.111 µM)
MIC (Candida albicans [18]): 0.1 µg/mL (≈ 0.111 µM)
MIC (Pichia kudriavzevii [19]): 0.1 µg/mL (≈ 0.111 µM)
Structure (SMILES): CCC(O)/C=C/C=C\C=C\C(=O)OC[C@H]1O[C@@H](O[C@H]2[C@H](OC(=O)/C=C/C=C/C[C@H](O)/C(C)=C/C=C/CC[C@@H](C)CC)[C@@H](O)[C@@]3(OCc4cc(O)cc(O)c43)O[C@@H]2CO)[C@H](O)[C@@H](O)[C@H]1O (some centres undefined)

MIC (Candida albicans [22]): 4 µg/mL (≈ 14.1 µM)
MIC (Candida parapsilosis [23]): 8 µg/mL (≈ 28.1 µM)
MIC (Candida albicans [24]): 4 µg/mL (≈ 14.1 µM)
Structure (SMILES): CCCC(C)Oc1cccc(NC(=O)c2cccnc2)c1 (centres undefined)

MIC (Nakaseomyces glabratus [25]): 4 µg/mL (≈ 12.1 µM)
MIC (Candida albicans [22]): 4 µg/mL (≈ 12.1 µM)
MIC (Candida parapsilosis [23]): 2 µg/mL (≈ 6.07 µM)
MIC (Candida albicans [24]): 4 µg/mL (≈ 12.1 µM)
MIC (Clavispora lusitaniae): 4 µg/mL (≈ 12.1 µM)
Structure (SMILES): COc1ccc(NC(=O)COc2cccc(OCC(C)C)c2)cc1

IC50 [27]: 0.00025 µM
Structure (SMILES): CCCCCCCCCCCCC[C@H]1OC(=O)[C@H](CCCN(CCCN)C(=O)[C@H](CCCN)N(CCN)CCN)NC(=O)[C@@H]([C@@H](C)O)NC(=O)CNC(=O)[C@H]([C@H](O)CC(N)=O)NC(=O)[C@H]2[C@@H](O)CCN2C(=O)[C@H]([C@@H](C)O)NC(=O)[C@@H]2C[C@@H](O)CN2C(=O)[C@H](C(C)C)NC(=O)[C@H](Cc2ccc(O)cc2)NC(=O)[C@@H](C)NC(=O)[C@H]([C@@H](C)O)NC1=O
ED50 (Aspergillus fumigatus [26]): 5.2 mg/kg
